Test results taken from ChEMBL document CHEMBL1201862, “PubChem BioAssay data set” (2004).
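In this assay, cells in 96-well plates receive the compound at five concentrations for 48 hours. Endpoints are linearly interpolated between the surrounding concentrations. GI50: concentration for 50% inhibition of growth.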 The source made the active and inactive calls. No stated cut-off is given here; in the data, active = GI50 up to about 1.1 µM and inactive = higher.

How the values were obtained:
Test in all cases: NCI-60 cell line screen, 48 h
XF498 = tested on: XF498
SNB-78 = tested on: SNB-78
LXFL 529 = tested on: LXFL 529
M19-MEL = tested on: M19-MEL
HOP-18 = tested on: HOP-18
DMS-273 = tested on: DMS-273
RXF 631 = tested on: RXF 631
KM-20L2 = tested on: KM-20L2
DMS-114 = tested on: DMS-114

Measured: GI50

Cc1cccc2[n+]1[C@H]1[C@H]([C@@H]3O[C@H]1c1ccccc13)[S+]([O-])N2 (some centres not stated)
inactive: XF498 20.2 µM | SNB-78 23.3 µM | LXFL 529 33.7 µM | M19-MEL 29.9 µM | HOP-18 21.2 µM | DMS-273 27.2 µM | RXF 631 > 100 µM | KM-20L2 42.7 µM | DMS-114 22.7 µM

N#C/C(=C\c1cc2ccccc2c2ccccc12)c1ccccc1
inactive: XF498 3.22 µM | SNB-78 4.06 µM | LXFL 529 14.4 µM | M19-MEL 7.29 µM | HOP-18 18.7 µM | DMS-273 3.05 µM | KM-20L2 3.9 µM

O=C(N/N=C(/c1nc2ccc(Cl)cc2[nH]c1=O)C(O)c1ccc(Cl)cc1Cl)c1ccncc1 (configuration not stated)
inactive: SNB-78 > 100 µM | LXFL 529 > 100 µM | M19-MEL > 100 µM | DMS-273 > 100 µM | RXF 631 > 100 µM | KM-20L2 > 100 µM | DMS-114 > 100 µM

NCCCNCCSSCCCCS(=O)O
inactive: XF498 18.2 µM | SNB-78 22.8 µM | LXFL 529 23 µM | M19-MEL 12.6 µM | HOP-18 > 100 µM | DMS-273 35.8 µM | RXF 631 > 100 µM | KM-20L2 > 100 µM | DMS-114 > 100 µM

CC(=O)N1C/C(=C\c2ccc(N(C)C)cc2)C(=O)/C(=C/c2ccc(N(C)C)cc2)C1
inactive: XF498 > 100 µM | SNB-78 85.9 µM | LXFL 529 64 µM | M19-MEL 33.6 µM | HOP-18 71.9 µM | DMS-273 49.8 µM | RXF 631 55.2 µM | KM-20L2 28.7 µM | DMS-114 30.2 µM

NC(=S)N/N=C(\C(=O)Nc1cccc([N+](=O)[O-])c1)c1nc2ccc([N+](=O)[O-])cc2nc1O
inactive: XF498 36.1 µM | LXFL 529 71.1 µM | M19-MEL > 100 µM | HOP-18 15 µM | DMS-273 44.4 µM | RXF 631 > 100 µM | KM-20L2 37.2 µM | DMS-114 20.7 µM

COc1cc(C2C(C(=O)Nc3ccc([N+](=O)[O-])cc3)=C(C)NC(C)=C2C(=O)Nc2ccc([N+](=O)[O-])cc2)ccc1O
inactive: XF498 23.8 µM | SNB-78 34.8 µM | LXFL 529 18.3 µM | M19-MEL 19.3 µM | HOP-18 27.6 µM | DMS-273 21.9 µM | RXF 631 32.5 µM | KM-20L2 18.5 µM | DMS-114 24.1 µM

CC(=O)C1=C(C)Cn2c(=O)c3ccccc3c(=O)n2C1
inactive: LXFL 529 > 100 µM | M19-MEL > 100 µM | DMS-273 > 100 µM | RXF 631 > 100 µM | KM-20L2 > 100 µM | DMS-114 > 100 µM

O=C(Nc1nc2ncn(CCOC(=O)c3ccccc3)c2c(=O)[nH]1)c1ccccc1
inactive: XF498 20.2 µM | SNB-78 > 100 µM | LXFL 529 22.7 µM | HOP-18 > 100 µM | RXF 631 15.4 µM | KM-20L2 6.9 µM

Cc1ns/c(=N\C(=S)N(C)C)n1C
inactive: XF498 > 100 µM | SNB-78 > 100 µM | LXFL 529 > 100 µM | HOP-18 > 100 µM | DMS-273 > 100 µM | RXF 631 > 100 µM | KM-20L2 > 100 µM | DMS-114 > 100 µM

Cc1cccc(C)c1NC(=O)C(=O)CC(=O)c1cccc([N+](=O)[O-])c1
inactive: XF498 > 100 µM | SNB-78 > 100 µM | LXFL 529 > 100 µM | M19-MEL > 100 µM | HOP-18 > 100 µM | DMS-273 > 100 µM | KM-20L2 > 100 µM

COC1=C(Br)C(=O)c2nc(C)ccc2C1=O
inactive: SNB-78 18.7 µM | LXFL 529 6.28 µM | M19-MEL 14.1 µM | HOP-18 17.1 µM | DMS-273 17.2 µM | KM-20L2 19 µM | DMS-114 15 µM
